Data on 17 compounds can be found in US8999956B2, “N-[(het)arylalkyl)] pyrazole(thio)carboxamides and their heterosubstituted analogues” (Bayer Intellectual Property GmbH, priority 2010, dated 2015).

Series [1] has as its system Sphaerotheca fuliginea. Put plainly: In vivo preventive test on Sphaerotheca fuliginea (cucumber). The settings on record: 500 ppm of active ingredient, evaluated 7 days after inoculation. In a few lines: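 Young cucumber plants sprayed with compound (in DMF with alkylarylpolyglycolether emulsifier, diluted in water) at the stated application rate. Inoculated one day later with aqueous Sphaerotheca fuliginea spore suspension. Plants then held in greenhouse at approximately 23° C and approximately 70% relative humidity.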

Series [2] has as its system Alternaria solani. Put plainly: In vivo preventive test on Alternaria solani (tomato). The conditions noted are these: 500 ppm of active ingredient, evaluated 7 days after inoculation. The gist of the method:
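Preventive set-up: Alternaria solani spores, as aqueous suspension, applied to young plants one day after spraying. Spray contained active compound formulated with N,N-dimethylformamide and emulsifier, water-diluted to the desired application rate.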

The subject of series [3] is Pyrenophora teres. Put plainly: In vivo preventive test on Pyrenophora teres (barley). The conditions noted are these: 500 ppm of active ingredient, evaluated 7-9 days after inoculation. The gist of the method: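 Preventive test: young barley plants received a water-diluted spray of compound formulated with DMF solvent plus alkylaryl polyglycol ether emulsifier, at the stated rate. Inoculation with an aqueous spore suspension of Pyrenophora teres followed one day after spraying.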

Series [4] relates to Botrytis cinerea. Put plainly: In vivo preventive test on Botrytis cinerea (beans). The protocol: Solvent: 24.5 parts by weight of acetone • 24.5 parts by weight of N,N-dimethylacetamide
Emulsifier: 1 part by weight of alkylaryl polyglycol ether
To produce a suitable preparation of active compound, 1 part by weight of active compound is mixed with the stated amounts of solvent and emulsifier, and the concentrate is diluted with water to the desired concentration.
To test for preventive activity, young plants are sprayed with the preparation of active compound. After the spray coating has dried on, 2 small pieces of agar covered with growth of Botrytis cinerea are placed on each leaf. The inoculated plants are placed in a darkened chamber at 20° C. and a relative atmospheric humidity of 100%.
2 days after the inoculation, the size of the lesions on the leaves is evaluated. 0% means an efficacy which corresponds to that of the untreated control, while an efficacy of 100% means that no disease is observed.

Series [5] deals with aflatoxines produced by Aspergillus parasiticus. Put plainly: microbe, parasite or virus in culture. The format is cell-based.
Series [6] has as its system Aspergillus parasiticus. Put plainly: microbe, parasite or virus in culture. The format is cell-based.
Series [7] deals with Venturia inaequalis. The experiment in a line: In vivo preventive test on Venturia inaequalis (apple scab). The settings on record: 100 ppm of active ingredient, evaluated 10 days after inoculation. The protocol:
(§1) Solvent: 24.5 parts by weight of acetone • 24.5 parts by weight of N,N-dimethylacetamide Emulsifier: 1 part by weight of alkylaryl polyglycol ether To produce a suitable preparation of active compound, 1 part by weight of active compound is mixed with the stated amounts of solvent and emulsifier, and the concentrate is diluted with water to the desired concentration. To test for preventive activity, young plants are sprayed with the preparation of active compound at the stated rate of application.

Series [8] relates to Leptosphaeria nodorum. Put plainly: In vivo preventive test on Leptosphaeria nodorum (wheat). The settings on record: 500 ppm of active ingredient, evaluated 7-9 days after inoculation. The protocol:
Solvent: 49 parts by weight of N,N-dimethylacetamide Emulsifier: 1 part by weight of alkylaryl polyglycol ether To produce a suitable preparation of active compound, 1 part by weight of active compound is mixed with the stated amounts of solvent and emulsifier, and the concentrate is diluted with water to the desired concentration. To test for preventive activity, young plants are sprayed with a preparation of active compound at the stated rate of application. One day after this treatment, the plants are inoculated with an aqueous spore suspension of Leptosphaeria nodorum.

Series [9] relates to Uromyces appendiculatus. Put plainly: In vivo preventive test on Uromyces appendiculatus (beans). The settings on record: 100 ppm of active ingredient, evaluated 10 days after inoculation. The protocol: as §1
Series [10] relates to Puccinia triticina. Put plainly: In vivo preventive test on Puccinia triticina (wheat).
The nature of series [11]: log P by HPLC on reversed-phase column (EEC Directive 79/831 Annex V.A8). The format is physicochemical. The protocol: In table 1, the log P values were determined in accordance with EEC Directive 79/831 Annex V.A8 by HPLC (High Performance Liquid Chromatography) on a reversed-phase column (C18), using the method described below: Temperature: 40° C.; […]
[12] abbreviates: Table L, 500 ppm of active ingredient, lesion size 2 days after inoculation.
Where [13] appears, read: Table K, 500 ppm of active ingredient, evaluated 8 days after inoculation.
Where [14] appears, read: 500 ppm of active ingredient, evaluated 8 days after inoculation.
[15] abbreviates: Puccinia triticina, 192 h, Table K5, dose 500 ppm, comparison with des-fluoro analogues, read-out: Efficacy.
The mark [16] stands for this setting: Table L5, dose 500 ppm, comparison with des-fluoro analogues.

Where two headings read alike, the source gives them in different places. Bounds are passed on as bounds.

In the case of `CCC(C)C(C)N(C(=O)c1c(C(F)F)nn(C)c1F)C1CC1` (mixture of isomers) [Example 302], the Efficacy in [1] was 98%; in [2], 95%; in series [3], 100%; in [4] (setting [12]) it was 93%. Further, the “% Inhibition of Aflatoxin at 50 μM” value in [5] is on record as 100%. For the same compound, the “% Inhibition of fungal growth at 50 μM” value in [6] came to 100%.

Turning to `CC(C)CC(C)C1CCCC1NC(=O)c1c(C(F)F)nn(C)c1Cl` (single isomer, unassigned) [Example 312], the Efficacy stood at 90% in series [1]; 95% in series [2]; 100% in series [3]; 99% in series [7]; 95% in series [8]; 100% in [9]. For the same compound, in series [10] (setting [13]), the Efficacy is on record as 100%. Moreover, in series [5] (50 µM), the “% Inhibition of Aflatoxin at 50 μM” value is 100%. Also, in series [6] (50 µM), the “% Inhibition of fungal growth at 50 μM” value stood at 99%. The compound further displayed a logP in series [11] of 4.40 isomer A.

As for `CC(C)CC(C)C1CCCC1NC(=O)c1c(C(F)F)nn(C)c1Cl` (single isomer, unassigned) [Example 313], the Efficacy in series [2] was found to be 80%; in series [3] it was 100%; in [9], 88%. Further, the “% Inhibition of Aflatoxin at 50 μM” value in [5] (50 µM) is reported as 99%. For the same compound, in series [6] (50 µM), the “% Inhibition of fungal growth at 50 μM” value was determined as 82%. For the same compound, in series [11], the logP was found to be 4.46 isomer B.

For the compound `CC(C)CC(C)C1CCCC1NC(=O)c1c(C(F)F)nn(C)c1Cl` (single isomer, unassigned) [Example 314], the Efficacy was 90% in series [1]; 95% in [2]; 100% in [3]; 98% in [7]; 80% in [8]; 85% in [9]. Further, the logP in series [11] was 4.47 isomer C.

Regarding `CC(C)CC(C)C1CCCC1NC(=O)c1c(C(F)F)nn(C)c1F` (single isomer, unassigned) [Example 316], the Efficacy in series [1] was 98%; in series [2], 90%; in series [3] it was 100%; in [7], 100%; in series [8] it was 80%; in series [9], 100%. Besides, the Efficacy in series [10] (setting [13]) is recorded as 100%. Moreover, the “% Inhibition of Aflatoxin at 50 μM” value in [5] stood at 100%. Moreover, the “% Inhibition of fungal growth at 50 μM” value in series [6] (50 µM) stood at 100%. In addition, the logP in series [11] was 4.19 isomer A.

Regarding `Cn1cc(C(=O)N(C2CC2)C2CCCCC2Cc2ccccc2)c(C(F)F)n1` (stereo not drawn) [16 from WO-2010/094666, N-(2-benzylcyclohexyl)-N-cyclopropyl-3-(difluoromethyl)-1-methyl-1H-pyrazole-4-carboxamide, reference compound], the Efficacy entry in series [10] (100 ppm of active ingredient, evaluated 8 days after inoculation, listed as example 16 disclosed in patent application WO-2010/094666) is on record as “no protection”; in series [4] (500 ppm of active ingredient, lesion size 2 days after inoculation) it was 29%; in series [4] (500 ppm of active ingredient, lesion size 2 days after inoculation, listed as example 16 disclosed in patent application WO-2010/094666), “less than 30%”. Moreover, the pest or weed control at 100 ppm in series [10] (Puccinia triticina, 192 h, 100 ppm of active ingredient, evaluated 8 days after inoculation, read-out: Efficacy) came out at 0%. Moreover, the pest or weed control at 500 ppm in [10] (Puccinia triticina, 192 h, 500 ppm of active ingredient, evaluated 8 days after inoculation, read-out: Efficacy) is less than 60%.

For `Cn1nc(C(F)F)c(C(=S)N(C[Si](C)(C)Cc2ccccc2)C2CC2)c1F` [Example 289], the Efficacy was determined as 93% in series [1]; 95% in series [2]; 100% in [3]; 95% in series [8]; 100% in series [4] (setting [12]). Further, the logP in [11] amounted to 4.67.

Consider `Cn1nc(C(F)F)c(C(=O)N(C[Si](C)(C)Cc2cccc(Cl)c2)C2CC2)c1F` [Example 291], for which the Efficacy in series [1] is reported as 73%; in series [2], 100%; in series [3], 100%; in [8], 100%; in [4] (setting [12]) it was 100%. Also, the “% Inhibition of Aflatoxin at 50 μM” value in series [5] is 100%. For the same compound, the “% Inhibition of fungal growth at 50 μM” value in series [6] is given as 100%. For the same compound, the logP in series [11] came out at 4.44.

On to `CCCCC1CCCC1NC(=O)c1c(C(F)F)nn(C)c1Cl` (stereo not drawn) [Example 307], for which the Efficacy in series [1] came to 83%; in [2], 100%; in [3], 100%; in series [7] it was 100%; in [9] it was 100%; in series [10] (setting [13]), 80%. Moreover, the “% Inhibition of Aflatoxin at 50 μM” value in [5] is on record as 100%. Also, the “% Inhibition of fungal growth at 50 μM” value in series [6] turned out to be 92%. Also, the logP in series [11] is listed as 3.83.

Take `CC(C)CCC1CCCC1NC(=O)c1c(C(F)F)nn(C)c1F` (stereo not drawn) [Example 310]: the Efficacy in [1], in series [2], in series [3], in [7] and in series [9] was 100% each time. Moreover, in series [5], the “% Inhibition of Aflatoxin at 50 μM” value is on record as 100%. Further, the “% Inhibition of fungal growth at 50 μM” value in [6] is listed as 96%. The compound also had a logP in series [11] of 3.98.

For `Cn1nc(C(F)F)c(C(=O)NC2CCCC2CCC(C)(C)C)c1Cl` (stereo not drawn) [Example 320], the Efficacy in series [1] came out at 100%; in [2], 100%; in series [3], 95%; in series [7] it was 100%; in [9], 99%; in series [10] (setting [13]), 70%. Further, the “% Inhibition of Aflatoxin at 50 μM” value in [5] amounted to 99%. In addition, the “% Inhibition of fungal growth at 50 μM” value in [6] is listed as 82%. Besides, the logP in [11] is reported as 4.49.

Regarding `CC(CC1CCCCC1)N(C(=O)c1c(C(F)F)nn(C)c1F)C1CC1` (stereo not drawn) [Example 370], the Efficacy turned out to be 100% in series [1]; 100% in series [2]; 100% in [3]; 90% in series [8]; 90% in series [10] (setting [13]); 100% in [4] (setting [12]). Moreover, in series [11], the logP is 4.36.

Consider `Cn1nc(C(F)F)c(C(=O)N(C2CC2)C2CCCCC2C2CCCCC2)c1F` (stereo not drawn) [Example 372], for which the Efficacy in series [1] was determined as 100%; in series [2] it was 95%; in [3], 100%; in series [8] it was 94%; in series [10] (setting [13]) it was 100%; in series [4] (setting [12]), 91%. This compound gave a logP in series [11] of 5.28.

In [9], `Cn1nc(C(F)F)c(C(=O)N(C2CC2)C2CCCCC2C2=CCCCC2)c1F` (stereo not drawn) [Example 376] showed an Efficacy of 94%. The compound also displayed a logP in series [11] of 4.88.

Turning to `Cn1nc(C(F)F)c(C(=O)NC2(C3CCCCC3)CC2)c1F` [Example 381], the Efficacy in [1] stood at 95%; in [2] it was 100%; in series [3], 100%; in series [4] (setting [12]) it was 88%. In addition, the logP in series [11] was 3.11.

With `Cc1nn(C)c(F)c1C(=O)N(C1CC1)C1CCCC(c2ccccc2)C1` (stereo not drawn) [compound CMP2, N-cyclopropyl-5-fluoro-1,3-dimethyl-N-(3-phenylcyclohexyl)-1H-pyrazole-4-carboxamide, reference compound], the Efficacy entry was “no protection” in series [10] (setting [14]) and 5% in series [4] (setting [16]). Further, the pest or weed control at 500 ppm in series [10] (setting [15]) was 0%.

With `Cn1cc(C(=O)N(C2CC2)C2CCCC(c3ccccc3)C2)c(C(F)F)n1` (stereo not drawn) [compound CMP3, N-cyclopropyl-3-(difluoromethyl)-1-methyl-N-(3-phenylcyclohexyl)-1H-pyrazole-4-carboxamide, reference compound], the Efficacy result in series [10] (setting [14]) is “no protection”; in series [4] (setting [16]) it was 0%. Further, the pest or weed control at 500 ppm in series [10] (setting [15]) was determined as 0%.
